{"source": "patent US20170050957A1", "about": "“4-AMINO-6-(HETEROCYCLIC)PICOLINATES AND 6-AMINO-2-(HETEROCYCLIC)PYRIMIDINE-4-CARBOXYLATES AND THEIR USE AS HERBICIDES” (Dow AgroSciences LLC, priority 2013, published 2017)", "key": {"[1]": {"test_system": "Key Broadleaf Weed and Crop Species", "test": "Post-emergent Test II herbicidal activity (Table 15)", "type": "in vivo", "settings": "post-emergence, 336 h, 14 d; for pest or weed control at 35 g/ha: 35 g ai/ha; for pest or weed control at 70 g/ha: 70 g ai/ha; for pest or weed control at 140 g/ha: 140 g ai/ha", "in_short": "(§1)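 Visual injury rating (0 = none, 100 = complete kill) taken 14 d after treatment, relative to untreated plants. Compounds in acetone/DMSO with crop oil concentrate and Triton X-155 were track-sprayed at 187 L/ha onto seedlings at the first-second true leaf stage.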"}, "[2]": {"test_system": "Key Grass and Sedge Weeds as well as Grass Crops", "test": "Post-emergent Test II herbicidal activity (Table 16)", "type": "in vivo", "settings": "post-emergence, 336 h, 14 d; for pest or weed control at 35 g/ha: 35 g ai/ha; for pest or weed control at 70 g/ha: 70 g ai/ha; for pest or weed control at 140 g/ha: 140 g ai/ha", "in_short": "as §1"}, "[3]": {"settings": "Abutilon theophrasti, velvetleaf (Abutilon theophrasti), read-out: Visual Growth Reduction (%) 14 Days After Application, ABUTH"}, "[4]": {"settings": "Amaranthus retroflexus, redroot pigweed (Amaranthus retroflexus), read-out: Visual Growth Reduction (%) 14 Days After Application, AMARE"}, "[5]": {"settings": "Brassica napus, oilseed rape, canola (Brassica napus), read-out: Visual Growth Reduction (%) 14 Days After Application, BRSNN"}, "[6]": {"settings": "Chenopodium album, lambsquarters (Chenopodium album), read-out: Visual Growth Reduction (%) 14 Days After Application, CHEAL"}, "[7]": {"settings": "Euphorbia heterophylla, wild poinsettia (Euphorbia heterophylla), read-out: Visual Growth Reduction (%) 14 Days After Application, EPHHL"}, "[8]": {"settings": "Helianthus annuus, sunflower (Helianthus annuus), read-out: Visual Growth Reduction (%) 14 Days After Application, HELAN"}, "[9]": {"settings": "Cyperus esculentus, yellow nutsedge (Cyperus esculentus), read-out: Visual Growth Reduction (%) 14 Days After Application, CYPES"}, "[10]": {"settings": "Echinochloa crus-galli, barnyardgrass (Echinochloa crus-galli), read-out: Visual Growth Reduction (%) 14 Days After Application, ECHCG"}, "[11]": {"settings": "Oryza sativa, rice (Oryza sativa), read-out: Visual Growth Reduction (%) 14 Days After Application, ORYSA"}, "[12]": {"settings": "Setaria faberi, giant foxtail (Setaria faberi), read-out: Visual Growth Reduction (%) 14 Days After Application, SETFA"}, "[13]": {"settings": "Triticum aestivum, wheat, spring (Triticum aestivum), read-out: Visual Growth Reduction (%) 14 Days After Application, TRZAS"}, "[14]": {"settings": "Zea mays, maize, corn (Zea mays), read-out: Visual Growth Reduction (%) 14 Days After Application, ZEAMX"}}, "note": "Where two headings read alike, the source gives them in different places."}
{"smiles": "COC(=O)c1nc(-c2ccc3ccoc3c2F)c(F)c(N)c1Cl", "note": "[Compound 2.09]", "values": [{"measurement": "pest or weed control at 35 g/ha", "setting": "[1]; [3]", "result": "85 to 94", "unit": "%"}, {"measurement": "pest or weed control at 70 g/ha", "setting": "[1]; [3]", "result": "85 to 94", "unit": "%"}, {"measurement": "pest or weed control at 140 g/ha", "setting": "[1]; [3]", "result": "85 to 94", "unit": "%"}, {"measurement": "pest or weed control at 35 g/ha", "setting": "[1]; [4]", "result": "85 to 94", "unit": "%"}, {"measurement": "pest or weed control at 70 g/ha", "setting": "[1]; [4]", "result": "95 to 100", "unit": "%"}, {"measurement": "pest or weed control at 140 g/ha", "setting": "[1]; [4]", "result": "95 to 100", "unit": "%"}, {"measurement": "pest or weed control at 35 g/ha", "setting": "[1]; [5]", "result": "60 to 74", "unit": "%"}, {"measurement": "pest or weed control at 70 g/ha", "setting": "[1]; [5]", "result": "75 to 84", "unit": "%"}, {"measurement": "pest or weed control at 140 g/ha", "setting": "[1]; [5]", "result": "85 to 94", "unit": "%"}, {"measurement": "pest or weed control at 35 g/ha", "setting": "[1]; [6]", "result": "95 to 100", "unit": "%"}, {"measurement": "pest or weed control at 70 g/ha", "setting": "[1]; [6]", "result": "95 to 100", "unit": "%"}, {"measurement": "pest or weed control at 140 g/ha", "setting": "[1]; [6]", "result": "95 to 100", "unit": "%"}, {"measurement": "pest or weed control at 35 g/ha", "setting": "[1]; [7]", "result": "95 to 100", "unit": "%"}, {"measurement": "pest or weed control at 70 g/ha", "setting": "[1]; [7]", "result": "95 to 100", "unit": "%"}, {"measurement": "pest or weed control at 140 g/ha", "setting": "[1]; [7]", "result": "95 to 100", "unit": "%"}, {"measurement": "pest or weed control at 35 g/ha", "setting": "[1]; [8]", "result": "60 to 74", "unit": "%"}, {"measurement": "pest or weed control at 70 g/ha", "setting": "[1]; [8]", "result": "75 to 84", "unit": "%"}, {"measurement": "pest or weed control at 140 g/ha", "setting": "[1]; [8]", "result": "85 to 94", "unit": "%"}, {"measurement": "melting point", "result": 151, "unit": "°C"}, {"measurement": "pest or weed control at 35 g/ha", "setting": "[2]; [9]", "result": "0 to 29", "unit": "%"}, {"measurement": "pest or weed control at 70 g/ha", "setting": "[2]; [9]", "result": "0 to 29", "unit": "%"}, {"measurement": "pest or weed control at 140 g/ha", "setting": "[2]; [9]", "result": "0 to 29", "unit": "%"}, {"measurement": "pest or weed control at 35 g/ha", "setting": "[2]; [10]", "result": "60 to 74", "unit": "%"}, {"measurement": "pest or weed control at 70 g/ha", "setting": "[2]; [10]", "result": "85 to 94", "unit": "%"}, {"measurement": "pest or weed control at 140 g/ha", "setting": "[2]; [10]", "result": "85 to 94", "unit": "%"}, {"measurement": "pest or weed control at 35 g/ha", "setting": "[2]; [11]", "result": "0 to 29", "unit": "%"}, {"measurement": "pest or weed control at 70 g/ha", "setting": "[2]; [11]", "result": "30 to 44", "unit": "%"}, {"measurement": "pest or weed control at 140 g/ha", "setting": "[2]; [11]", "result": "30 to 44", "unit": "%"}, {"measurement": "pest or weed control at 35 g/ha", "setting": "[2]; [12]", "result": "45 to 59", "unit": "%"}, {"measurement": "pest or weed control at 70 g/ha", "setting": "[2]; [12]", "result": "60 to 74", "unit": "%"}, {"measurement": "pest or weed control at 140 g/ha", "setting": "[2]; [12]", "result": "60 to 74", "unit": "%"}, {"measurement": "pest or weed control at 35 g/ha", "setting": "[2]; [13]", "result": "0 to 29", "unit": "%"}, {"measurement": "pest or weed control at 70 g/ha", "setting": "[2]; [13]", "result": "0 to 29", "unit": "%"}, {"measurement": "pest or weed control at 140 g/ha", "setting": "[2]; [13]", "result": "0 to 29", "unit": "%"}, {"measurement": "pest or weed control at 35 g/ha", "setting": "[2]; [14]", "result": "45 to 59", "unit": "%"}, {"measurement": "pest or weed control at 70 g/ha", "setting": "[2]; [14]", "result": "60 to 74", "unit": "%"}, {"measurement": "pest or weed control at 140 g/ha", "setting": "[2]; [14]", "result": "60 to 74", "unit": "%"}]}
